Test results reported in paper PMC3412796, “High-Throughput Screening and Rapid Inhibitor Triage Using an Infectious Chimeric Hepatitis C Virus” (PLoS ONE, 2012).
Marks after values point to notes of the source that are not given here.

How the values were obtained:
gt 1a/2a-Rluc virus [1] = test: Multi-cycle virus growth assay, Renilla luciferase readout (HTS); settings: for inhibition of luciferase expression: MOI 0.05, EI 1 µM added 16 h post-entry, LY411575 0.5 µM
Method: For compound library screening, infections were performed in 384-well plates by pre-mixing 400 ffu of gt 1a/2a-Rluc virus with 1×10^4 Huh-7.5 cells and dispensing 50 µl on top of 150 nl of compound in DMSO (final 0.3% DMSO) followed by incubation at 37°C. Renilla luciferase activity, reflecting the degree of virus replication, was measured 96 h after infection using the EnduRen reagent (Promega). […] Maximum activity (100% of control) and background were derived from control wells containing DMSO alone or from uninfected wells, respectively. The individual signals in each of the compound test wells were then divided by the averaged control values (wells lacking inhibitor), after background subtraction, and multiplied by 100% to determine percent activity. The corresponding % inhibition values were then calculated by subtracting this value from 100. Dose-response assays were performed in triplicate and average EC50 values (reflecting the concentration at which 50% inhibition of virus replication was achieved) were calculated using XLfit for Excel (ID Business Solutions, Burlington, MA). Cytotoxicity studies were performed in parallel using CellTiter-Glo (Promega). For high-content screening, virus and cells were prepared as above and 50 ul was dispensed into black 384 well optics plates (Thermo Scientific). At 96 h post-infection, cells were fixed for 20 min by adding 17 ul of 16% paraformaldehyde (Electron Microscopy Sciences) to achieve 4% final fixative. Cells were washed and permeabilized twice for 10 min each with PBS containing 1% TX-100 and 0.05% Tween-20 (wash buffer) and blocked for 15 min with PBS with 2% BSA (blocking buffer). […] The total number of cells per well (Hoechst staining) and infected cells per well (HCV Core) was measured using a Cellomics ArrayScan HCS Reader (Thermo Scientific) and EC50 values calculated as described above.

gt 1a/2a-Rluc virus [2] = test: HCV Core Cellomics ArrayScan assay (HCS); settings: 96 h, Huh-7.5 cells, HCV Core Cellomics readout, average ± SD of at least three experiments
Method: For compound library screening, infections were performed in 384-well plates by pre-mixing 400 ffu of gt 1a/2a-Rluc virus with 1×10^4 Huh-7.5 cells and dispensing 50 µl on top of 150 nl of compound in DMSO (final 0.3% DMSO) followed by incubation at 37°C. Renilla luciferase activity, reflecting the degree of virus replication, was measured 96 h after infection using the EnduRen reagent (Promega). […] Maximum activity (100% of control) and background were derived from control wells containing DMSO alone or from uninfected wells, respectively. The individual signals in each of the compound test wells were then divided by the averaged control values (wells lacking inhibitor), after background subtraction, and multiplied by 100% to determine percent activity. The corresponding % inhibition values were then calculated by subtracting this value from 100. Dose-response assays were performed in triplicate and average EC50 values (reflecting the concentration at which 50% inhibition of virus replication was achieved) were calculated using XLfit for Excel (ID Business Solutions, Burlington, MA). Cytotoxicity studies were performed in parallel using CellTiter-Glo (Promega). […] The total number of cells per well (Hoechst staining) and infected cells per well (HCV Core) was measured using a Cellomics ArrayScan HCS Reader (Thermo Scientific) and EC50 values calculated as described above. […]

gt 1a/2a-Rluc virus [3] = test: Virus foci expansion by HCV Core immunofluorescence; assay type: cell-based, Hepatitis C virus; settings: EI 1 µM added 16 h post-entry, LY411575 0.5 µM
gt 1a/2a-Rluc virus [4] = test: HCVcc resistance selection; settings: virus cultured at 5× EC50 up to 10 weeks or until resistance observed
Method: The gt 1a/2a-Rluc virus was used to infect Huh-7.5 cells and inhibitor was added 12 h post-infection at 5× EC50. Infection was allowed to progress for 96 h and cells were split 1∶1 with naïve Huh-7.5 cells in the presence of inhibitor and cultured for another 96 h. Viral supernatants were passed onto naïve Huh-7.5 cells in the presence of inhibitor and HCVcc replication in the presence of inhibitor was monitored by determining the spread of virus infection, using immunofluorescence (HCV Core), at each passage. Generally, virus stocks were prepared when HCVcc was ≥10-fold resistant relative to wild-type parental virus. The HCV genome was amplified by RT-PCR (Invitrogen), cloned and amino acid changes that arose during inhibitor selection were identified by analysis of the DNA sequence compared to the parent and control passages in the absence of inhibitor.

gt 1a/2a-Rluc virus [5] = test: HCVcc infectious virus release assay; settings: 2× EC90 of compound, 48 h pi
Method: Cells were incubated at 37°C for 48 h and supernatants were collected. Supernatants were clarified by centrifugation, diluted 20 fold and used to infect naïve Huh-7.5 cells in 96 well plates. Renilla luciferase expression was measured in both producer cells and target cells 48 h post-infection as described above.

Compound	% inhibition in a 96 h assay (gt 1a/2a-Rluc virus [1]; 384 well, 400 ffu of virus/well and 4,000 Huh7.5 cells (MOI = 0.1), 96 h) [%]	inhibition of luciferase expression (gt 1a/2a-Rluc virus [1]; 48 h pi) [%]	inhibition of luciferase expression (gt 1a/2a-Rluc virus [1]; 72 h pi) [%]	inhibition of luciferase expression (gt 1a/2a-Rluc virus [1]; 96 h pi) [%]	difference in potency at 96 h vs 48 h pi (multi- vs single-cycle) (gt 1a/2a-Rluc virus [1]; EC50 at 48 h vs 96 h pi) [fold]	EC50 (gt 1a/2a-Rluc virus [1]; read-out: Luciferase (EC50), 96 h, Huh-7.5 cells, Renilla luciferase readout, average ± SD of at least three experiments) [nM]	EC50 (gt 1a/2a-Rluc virus [2]; read-out: Cellomics (EC50)) [nM]	size of HCV Core-positive virus foci (gt 1a/2a-Rluc virus [3]; 48 h pi, MOI 0.05, Huh-7.5) [mean cells/foci]	inhibition of expansion of virus foci (gt 1a/2a-Rluc virus [3]; 96 h pi, MOI 0.05) [fold]	Fold Resistance (gt 1a/2a-Rluc virus [4])	effect on Renilla luciferase expression in producer and target cells (gt 1a/2a-Rluc virus [5])	Luciferase (EC50) (gt 1a/2a-Rluc virus [1]; 96 h, Huh-7.5 cells, Renilla luciferase readout, average ± SD of at least three experiments)	Cellomics (EC50) (gt 1a/2a-Rluc virus [2])
C[C@H](NC(=O)[C@@H](O)c1cc(F)cc(F)c1)C(=O)N[C@@H]1C(=O)N(C)c2ccccc2-c2ccccc21 [LY411575]	> 90	< 20	> 80	> 90	> 200	10 ± 3.3	11 ± 4.1	2.0±0.6	> 20	did not select for resistance through ten weeks of culture and None	only affected Renilla luciferase expression in target cells		
IFNα												0.20±0.04 ^b International units per ml	0.17±0.08 ^b International units per ml
